The results in this text go back to ChEMBL document CHEMBL4406908, “Identification of neomacrophorins isolated from Trichoderma sp. 1212-03 as proteasome inhibitors” (Bioorg Med Chem, 2019).

Experiment [1] deals with Proteasome Macropain subunit (Homo sapiens) (UniProt P49721). Nature of the experiment: Inhibition of trypsin-like activity of beta2 subunit of 20S proteasome in human erythrocytes using Boc-LRR-MCA as substrate preincubated with enzyme for 10 mins followed by substrate addition and measured after 3 hrs by fluorescence spectrophotometric analysis. Format: cell-based.
Experiment [2] has as its system HL-60. Briefly: Induction of apoptosis in human HL60 cells assessed as DNA fragmentation at 5 uM preincubated with 50 uM pan caspase inhibitor, z-VAD-FMK for 1 hr followed by incubation with compound for 4 hrs by ethidium bromide staining based agarose gel electrophoresis method. The class given is functional, cell-based.
Experiment [3] concerns HL-60. Nature of the experiment: Antiproliferative activity against human HL60 cells assessed as cell viability at 5 to 10 uM incubated for 48 hrs in presence of 5 mM nucleophile, NAC by trypan blue dye exclusion assay. Format: functional, cell-based.
Experiment [4] relates to HL-60. Nature of the experiment: Induction of apoptosis in human HL60 cells assessed as increase in DNA fragmentation incubated for 4 hrs by ethidium bromide staining based agarose gel electrophoresis method. Format: functional, cell-based.
In experiment [5] the target is T1, Proteasome component C5 (Homo sapiens) (UniProt P20618).
T1 sequence (whole entry): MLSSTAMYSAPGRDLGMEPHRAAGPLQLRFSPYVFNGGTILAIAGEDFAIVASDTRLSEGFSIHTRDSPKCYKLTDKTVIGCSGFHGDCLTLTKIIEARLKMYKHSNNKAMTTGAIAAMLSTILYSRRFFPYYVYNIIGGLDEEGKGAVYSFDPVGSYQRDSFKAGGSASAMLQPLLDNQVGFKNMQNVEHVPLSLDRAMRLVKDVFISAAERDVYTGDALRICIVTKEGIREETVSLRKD
Briefly: Inhibition of caspase-like activity of beta1 subunit of 20S proteasome in human erythrocytes using Z-LLE-MCA as substrate preincubated with enzyme for 10 mins followed by substrate addition and measured after 3 hrs by fluorescence spectrophotometeric analysis.

Experiment [6] in a line: Binding affinity to NAC methyl ester in PBS-MeOH (7:3) solution assessed as methyl 4-[[(1R,6S)-6-[[(1S,4aR,6R,8aR)-6-hydroxy-5,5,8a-trimethyl-2-methylene-decalin-1-yl]methyl]-3-[(2-acetamido-3-methoxy-3-oxo-propyl)sulfanylmethyl]-2,5-dioxo-7-oxabicyclo[4.1.0]heptan-4-yl]sulfanyl]-3-acetamido-butanoate formation at 1 mM by HPLC analysis.
Experiment [7] has as its system HL-60. Briefly: Antiproliferative activity against human HL60 cells assessed as cell growth inhibition incubated for 2 days by MTT assay. Particulars: HL-60, 48 h. Format: functional, cell-based.
A short description of experiment [8]: Binding affinity to NAC methyl ester assessed as methyl 3-[[(1R,6S)-6-[[(1S,4aR,6R,8aR)-6-hydroxy-5,5,8a-trimethyl-2-methylene-decalin-1-yl]methyl]-2,5-dioxo-7-oxabicyclo[4.1.0]hept-3-en-3-yl]methylsulfanyl]-2-acetamido-propanoate formation by UV spectra analysis.
Experiment [9] in a line: Binding affinity to NAC methyl ester in PBS-MeOH (7:3) solution at 1 mM by ESI/LC-MS analysis.
The test system of another experiment is Proteasome. Nature of the experiment: Inhibition of proteasome in human HL60 cells assessed as accumulation of ubiquitinated proteins at 5 uM incubated for 4 hrs in presence of 5 mM nucleophile, NAC by Western blot analysis. The class given is subcellular.
Experiment [10] relates to HL-60. Nature of the experiment: Induction of apoptosis in human HL60 cells assessed as increase in cleavage of caspase 3 incubated for 4 hrs by Western blot analysis. Format: functional, cell-based.
Experiment [11] addresses T2, Proteasome Macropain subunit MB1 (Homo sapiens, UniProt P28074).
T2 sequence (P28074 whole entry): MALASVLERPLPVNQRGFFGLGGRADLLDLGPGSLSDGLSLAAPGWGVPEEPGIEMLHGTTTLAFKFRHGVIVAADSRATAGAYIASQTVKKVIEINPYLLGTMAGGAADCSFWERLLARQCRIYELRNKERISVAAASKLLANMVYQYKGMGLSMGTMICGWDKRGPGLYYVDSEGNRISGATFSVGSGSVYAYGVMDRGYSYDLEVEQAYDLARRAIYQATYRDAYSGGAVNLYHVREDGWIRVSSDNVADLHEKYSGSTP
Briefly: (§1) Inhibition of chymotrypsin-like activity of beta5 subunit of 20S proteasome in human erythrocytes using Suc-LLVY-MCA as substrate preincubated with enzyme for 10 mins followed by substrate addition and measured after 3 hrs by fluorescence spectrophotometric analysis.

Experiment [12] deals with T3, Proteasome Macropain subunit MB1 (Homo sapiens) (UniProt P28074).
T3 sequence (whole entry): T2 sequence (P28074 whole entry)
The description is as §1.

The test system of experiment [13] is HL-60. Nature of the experiment: Induction of apoptosis in human HL60 cells assessed as caspase 3 cleavage at 5 uM incubated for 4 hrs in presence of 5 mM nucleophile, NAC by Western blot analysis. Format: functional, cell-based.
In experiment [14] the test system is HL-60. Briefly: Induction of apoptosis in human HL60 cells assessed as ROS generation. Format: functional, cell-based.
Experiment [15] in a line: Binding affinity to NAC methyl ester in PBS-MeOH (7:3) solution assessed as methyl 3-[[(1R,6S)-6-[[(1S,4aR,6R,8aR)-6-hydroxy-5,5,8a-trimethyl-2-methylene-decalin-1-yl]methyl]-2,5-dioxo-7-oxabicyclo[4.1.0]hept-3-en-3-yl]methylsulfanyl]-2-acetamido-propanoate formation at 1 mM by HPLC analysis.
In experiment [16] the test system is HL-60. Briefly: Inhibition of proteasome in human HL60 cells assessed as increase in accumulation of ubiquitinated proteins at 1.25 to 5 uM incubated for 4 hrs by Western blot analysis. The class given is functional, cell-based.
Experiment [17] relates to HL-60. Briefly: Inhibition of proteasome in human HL60 cells assessed as increase in accumulation of ubiquitinated proteins at 12.5 to 50 uM incubated for 4 hrs by Western blot analysis. Format: functional, cell-based.
Experiment [18] deals with HL-60. Briefly: Induction of apoptosis in human HL60 cells assessed as DNA fragmentation at 50 uM preincubated with 50 uM pan caspase inhibitor, z-VAD-FMK for 1 hr followed by incubation with compound for 4 hrs by ethidium bromide staining based agarose gel electrophoresis method. Format: functional, cell-based.
Experiment [19] can be described thus: Binding affinity to NAC methyl ester in PBS-MeOH (7:3) solution assessed as methyl 3-[[(1R,6S)-6-[[(1S,4aR,6R,8aR)-6-hydroxy-5,5,8a-trimethyl-2-methylene-decalin-1-yl]methyl]-3-(hydroxymethyl)-2,5-dioxo-7-oxabicyclo[4.1.0]heptan-4-yl]sulfanyl]-2-acetamido-propanoate formation at 1 mM by HPLC analysis.
Experiment [20] relates to HL-60. Briefly: Antiproliferative activity against human HL60 cells assessed as cell viability at 0.5 to 1 uM incubated for 48 hrs in presence of 5 mM nucleophile, NAC by trypan blue dye exclusion assay. Format: functional, cell-based.
Experiment [21] concerns the target T3, Proteasome Macropain subunit MB1 (Homo sapiens). Briefly: Inhibition of chymotrypsin-like activity of beta5 subunit of 20S proteasome in human erythrocytes at 100 uM using Suc-LLVY-MCA as substrate preincubated with enzyme for 10 mins followed by substrate addition and measured after 3 hrs by fluorescence spectrophotometeric analysis.
The subject of experiment [22] is HL-60. Nature of the experiment: Induction of apoptosis in human HL60 cells assessed as DNA fragmentation at 100 uM preincubated with 50 uM pan caspase inhibitor, z-VAD-FMK for 1 hr followed by incubation with compound for 4 hrs by ethidium bromide staining based agarose gel electrophoresis method. The class given is functional, cell-based.
Experiment [23] can be described thus: Binding affinity to NAC methyl ester in PBS-MeOH (7:3) solution at 1 mM by HPLC analysis.
The target of experiment [24] is T1, Proteasome component C5 (Homo sapiens). Nature of the experiment: Inhibition of caspase-like activity of beta1 subunit of 20S proteasome in human erythrocytes at 100 uM using Z-LLE-MCA as substrate preincubated with enzyme for 10 mins followed by substrate addition and measured after 3 hrs by fluorescence spectrophotometeric analysis.
Experiment [25] relates to HL-60. Briefly: Inhibition of proteasome in human HL60 cells assessed as accumulation of ubiquitinated proteins at 100 uM incubated for 4 hrs by Western blot analysis. Format: functional, cell-based.
Experiment [26] concerns the target Proteasome Macropain subunit (Homo sapiens) (UniProt P49721). Briefly: Inhibition of trypsin-like activity of beta2 subunit of 20S proteasome in human erythrocytes at 100 uM using Boc-LRR-MCA as substrate preincubated with enzyme for 10 mins followed by substrate addition and measured after 3 hrs by fluorescence spectrophotometric analysis.
Experiment [27] is described as follows: Binding affinity to NAC methyl ester in PBS-MeOH (7:3) solution assessed as disappearance of peak regarding parent compound at 1 mM measured within 1 min by HPLC analysis.
The next experiment concerns COLO 201. Nature of the experiment: Cytotoxicity against human COLO201 cells. Format: functional, cell-based.

Activity calls are given as the source filed them. No cut-off for these calls is given here.

Chain of Proteasome Macropain subunit (Homo sapiens) (P49721 whole entry, the tested form may be a part): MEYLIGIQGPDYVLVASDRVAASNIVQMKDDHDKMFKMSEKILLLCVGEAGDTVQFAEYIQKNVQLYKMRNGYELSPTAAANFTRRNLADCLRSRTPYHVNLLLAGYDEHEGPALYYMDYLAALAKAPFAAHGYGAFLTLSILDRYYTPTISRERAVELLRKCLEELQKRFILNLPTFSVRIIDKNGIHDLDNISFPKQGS

For the compound `C=C1CC[C@H]2C(C)(C)[C@H](O)CC[C@]2(C)[C@H]1C[C@]12O[C@H]1C(=O)C(COC(=O)C[C@H](C)O)=CC2=O`, the inhibition entry in [1], in [5] and in experiment [12] was “Dose-dependent effect” in each case. The result with HL-60 [2], in the experiment on HL-60 [3], with HL-60 [13] and in the experiment on HL-60 [14] was inactive. The Activity result in the experiment on HL-60 [4] and in the experiment with HL-60 [10] was “Dose-dependent effect” each time. The outcome in [6], in [8], in experiment [9] and in [15] was Active. Moreover, the half-maximal inhibitory concentration (IC50) in the experiment on HL-60 [7] came out at 1.3 µM; in experiment [11], 5.3 µM. The inhibition entry in the experiment on Proteasome was “inactive”. Further, the inhibition entry with HL-60 [16] was “Active”.

As for `C=C1CC[C@H]2C(C)(C)[C@H](O)CC[C@]2(C)[C@H]1C[C@]12O[C@H]1[C@H](O)C(COC(=O)[C@H](O)[C@H](C)O)=CC2=O`, the inhibition result in [1], in experiment [5] and in experiment [12] was “Dose-dependent effect” in each case. Also, the Activity entry with HL-60 [4] and in the experiment on HL-60 [10] was “Dose-dependent effect” throughout. Moreover, the inhibition result in the experiment with HL-60 [17] is “Active”. Further, the concentration for half-maximal inhibition (IC50) came to 21.6 µM with HL-60 [7] and 93.6 µM in experiment [11]. For the same compound, the result in the experiment with HL-60 [18] and in the experiment on HL-60 [14] was inactive.

Consider `C=C1CC[C@H]2C(C)(C)[C@H](O)CC[C@]2(C)[C@H]1C[C@]12O[C@H]1[C@H](O)C(COC(=O)C[C@H](C)O)=CC2=O`, for which the inhibition result in [1], in experiment [5] and in experiment [12] was “Dose-dependent effect” each time. For the same compound, the Activity entry in the experiment on HL-60 [4] and in the experiment on HL-60 [10] was “Dose-dependent effect” in each case. Moreover, the inhibition result with HL-60 [17] is “Active”. Besides, the concentration for half-maximal inhibition (IC50) is 15 µM in the experiment on HL-60 [7] and 31.9 µM in experiment [11]. Further, the result with HL-60 [18] and in the experiment with HL-60 [14] was inactive.

In the case of `C=C1CC[C@H]2C(C)(C)[C@H](O)CC[C@]2(C)[C@H]1C[C@]12O[C@H]1C(=O)C(CO)=CC2=O`, the inhibition entry in [1], in [5] and in experiment [12] was “Dose-dependent effect” throughout. The outcome with HL-60 [2], in the experiment with HL-60 [13] and in the experiment with HL-60 [14] was inactive. The Activity entry with HL-60 [4] and with HL-60 [10] was “Dose-dependent effect” throughout. The values for the IC50 (in the experiment on HL-60 [7]; in experiment [11]) were 0.3 µM and 26.3 µM, respectively. For the same compound, the outcome in experiment [19] and in [9] was Active. The inhibition entry in the experiment with Proteasome and in the experiment with HL-60 [20] was “inactive” each time. The inhibition entry in the experiment on HL-60 [16] was “Active”.

For `C=C1CC[C@H]2C(C)(C)[C@H](O)CC[C@]2(C)[C@H]1C[C@]12O[C@H]1[C@H](O)C(CO)=CC2=O`, the inhibition entry (in experiment [21]; in experiment [24]; with HL-60 [25]; in experiment [26]) was “inactive” in each case. Moreover, the Activity result in the experiment with HL-60 [4] and in the experiment with HL-60 [10] was “Dose-dependent effect” each time. Further, the IC50 is 25.3 µM in the experiment with HL-60 [7] and above 100 µM in experiment [11]. The outcome (in the experiment on HL-60 [22]; in experiment [23]; with HL-60 [14]) was inactive.

For the compound `C=C1CC[C@H]2C(C)(C)[C@H](O)CC[C@]2(C)[C@H]1C[C@]12O[C@H]1C(=O)C(COC(=O)[C@H](O)[C@H](C)O)=CC2=O`, the inhibition result in experiment [1], in [5] and in experiment [12] was “Dose-dependent effect” each time. The outcome in the experiment with HL-60 [2], in the experiment with HL-60 [3], with HL-60 [13] and with HL-60 [14] was inactive. Moreover, the outcome in [27], in experiment [6], in [8], in experiment [9] and in experiment [15] was Active. Further, the Activity entry in the experiment on HL-60 [4] and with HL-60 [10] was “Dose-dependent effect” throughout. Moreover, the IC50 in the experiment on HL-60 [7] turned out to be 2.6 µM; in experiment [11], 5.7 µM; in the experiment with COLO 201 it was 96.6 µM. The inhibition result in the experiment with Proteasome is “inactive”. Also, in the experiment on HL-60 [16], the inhibition result was “Active”.
